# In PMC6979384, “Characterization of the plant homeodomain (PHD) reader family for their histone tail interactions” (Epigenetics & Chromatin, 2020):
# How the values were obtained:
# Assay in all cases: Histone peptide microarray
# Type in all cases: binding, human
# CHD4 (PPCC) = conditions: sheet "Array Heatmap", total n = 4; for Array Heatmap value (peptide array signal): CHD4 (PPCC), each array performed twice
# Procedure, shortened: (§1)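 Each reader, produced as a GST fusion and purified, was tested at 0.5 μM on synthetic histone peptides (293 in total) carrying single or combinatorial marks. Intensities averaged over four replicates.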
# DIDO1 = conditions: sheet "Array Heatmap", total n = 4; for Array Heatmap value (peptide array signal): DIDO1, each array performed twice
# Procedure, shortened: as §1
# MORC3 (CW) = conditions: sheet "Array Heatmap", total n = 4; for Array Heatmap value (peptide array signal): MORC3 (CW), each array performed twice
# Procedure, shortened: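 Purified PHD finger domains fused to GST are screened against 293 synthetic histone peptides bearing one or several post-translational modifications. The protein is used at 0.5 μM, and the signal from four replicate arrays is averaged, with standard deviation given.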
# KDM4C (TTP) = conditions: sheet "Array Heatmap", total n = 4; for Array Heatmap value (peptide array signal): KDM4C (TTP), each array performed twice
# Procedure, shortened: as §1
# PHF23 = conditions: sheet "Array Heatmap", total n = 4; for Array Heatmap value (peptide array signal): PHF23, each array performed twice
# Procedure, shortened: as §1
# DPF2 (PPC2W2) = conditions: sheet "Array Heatmap", total n = 4; for Array Heatmap value (peptide array signal): DPF2 (PPC2W2), each array performed twice
# Procedure, shortened: as §1
# KDM5A (1) = conditions: sheet "Array Heatmap", total n = 4; for Array Heatmap value (peptide array signal): KDM5A (1), each array performed twice
# Procedure, shortened: as §1
# ING4 = conditions: sheet "Array Heatmap", total n = 4; for Array Heatmap value (peptide array signal): ING4, each array performed twice
# Procedure, shortened: as §1
# PHF21A = conditions: sheet "Array Heatmap", total n = 4; for Array Heatmap value (peptide array signal): PHF21A, each array performed twice
# Procedure, shortened: as §1
# ING1 = conditions: sheet "Array Heatmap", total n = 4; for Array Heatmap value (peptide array signal): ING1, each array performed twice
# Procedure, shortened: as §1
# ING2 = conditions: sheet "Array Heatmap", total n = 4; for Array Heatmap value (peptide array signal): ING2, each array performed twice
# Procedure, shortened: as §1
# AIRE (PP) = conditions: sheet "Array Heatmap", total n = 4; for Array Heatmap value (peptide array signal): AIRE (PP), each array performed twice
# Procedure, shortened: as §1
# BAZ2B = conditions: sheet "Array Heatmap", total n = 4; for Array Heatmap value (peptide array signal): BAZ2B, each array performed twice
# Procedure, shortened: as §1
# KDM5B (3) = conditions: sheet "Array Heatmap", total n = 4; for Array Heatmap value (peptide array signal): KDM5B (3), each array performed twice
# Procedure, shortened: as §1
# PHF8 = conditions: sheet "Array Heatmap", total n = 4; for Array Heatmap value (peptide array signal): PHF8, each array performed twice
# Procedure, shortened: as §1
# ING5 = conditions: sheet "Array Heatmap", total n = 4; for Array Heatmap value (peptide array signal): ING5, each array performed twice
# Procedure, shortened: as §1
# MLL5 = conditions: sheet "Array Heatmap", total n = 4; for Array Heatmap value (peptide array signal): MLL5, each array performed twice
# Procedure, shortened: as §1
# KDM7A = conditions: sheet "Array Heatmap", total n = 4; for Array Heatmap value (peptide array signal): KDM7A, each array performed twice
# Procedure, shortened: as §1
# BPTF (PB) = conditions: sheet "Array Heatmap", total n = 4; for Array Heatmap value (peptide array signal): BPTF (PB), each array performed twice
# Procedure, shortened: as §1
# CHD5 (PPCC) = conditions: sheet "Array Heatmap", total n = 4; for Array Heatmap value (peptide array signal): CHD5 (PPCC), each array performed twice
# Procedure, shortened: as §1
# TRIM66 (PB) = conditions: sheet "Array Heatmap", total n = 4; for Array Heatmap value (peptide array signal): TRIM66 (PB), each array performed twice
# Procedure, shortened: as §1
# KDM5B (1) = conditions: sheet "Array Heatmap", total n = 4; for Array Heatmap value (peptide array signal): KDM5B (1), each array performed twice
# Procedure, shortened: as §1
# TAF3 = conditions: sheet "Array Heatmap", total n = 4; for Array Heatmap value (peptide array signal): TAF3, each array performed twice
# Procedure, shortened: as §1
# ING3 = conditions: sheet "Array Heatmap", total n = 4; for Array Heatmap value (peptide array signal): ING3, each array performed twice
# Procedure, shortened: as §1
# CHD5 (PCC) = conditions: sheet "Array Heatmap", total n = 4; for Array Heatmap value (peptide array signal): CHD5 (PCC), each array performed twice
# Procedure, shortened: as §1
# SP140L = conditions: sheet "Array Heatmap", total n = 4; for Array Heatmap value (peptide array signal): SP140L, each array performed twice
# Procedure, shortened: as §1
# PHF13 = conditions: sheet "Array Heatmap", total n = 4; for Array Heatmap value (peptide array signal): PHF13, each array performed twice
# Procedure, shortened: as §1
# RAG2 = conditions: sheet "Array Heatmap", total n = 4; for Array Heatmap value (peptide array signal): RAG2, each array performed twice
# Procedure, shortened: as §1
# PHF2 = conditions: sheet "Array Heatmap", total n = 4; for Array Heatmap value (peptide array signal): PHF2, each array performed twice
# Procedure, shortened: as §1
# KDM5A (3) = conditions: sheet "Array Heatmap", total n = 4; for Array Heatmap value (peptide array signal): KDM5A (3), each array performed twice
# Procedure, shortened: as §1
# PHRF1 (RP) = conditions: sheet "Array Heatmap", total n = 4; for Array Heatmap value (peptide array signal): PHRF1 (RP), each array performed twice
# Procedure, shortened: as §1
# [1] = GST-tagged reader, histone peptide array
substance,measurement,setting,value
H3.3K18ac + K23ac + K27ac: H3.3 15-34,"Array Heatmap signal, CHD4 (PPCC)",CHD4 (PPCC); [1],0.4939
same,"Array Heatmap signal, DIDO1",DIDO1; [1],0.6174
same,"Array Heatmap signal, MORC3 (CW)",MORC3 (CW); [1],0.3178
same,"Array Heatmap signal, KDM4C (TTP)",KDM4C (TTP); [1],0.4047
same,"Array Heatmap signal, PHF23",PHF23; [1],0.5184
same,"Array Heatmap signal, DPF2 (PPC2W2)",DPF2 (PPC2W2); [1],0.5923
same,"Array Heatmap signal, KDM5A (1)",KDM5A (1); [1],0.4013
same,"Array Heatmap signal, ING4",ING4; [1],0.3863
same,"Array Heatmap signal, PHF21A",PHF21A; [1],0.4029
same,"Array Heatmap signal, ING1",ING1; [1],0.4856
same,"Array Heatmap signal, ING2",ING2; [1],0.5898
same,"Array Heatmap signal, AIRE (PP)",AIRE (PP); [1],0.3882
same,"Array Heatmap signal, BAZ2B",BAZ2B; [1],0.3976
same,"Array Heatmap signal, KDM5B (3)",KDM5B (3); [1],0.4033
same,"Array Heatmap signal, PHF8",PHF8; [1],0.3485
same,"Array Heatmap signal, ING5",ING5; [1],0.2999
same,"Array Heatmap signal, MLL5",MLL5; [1],0.5276
same,"Array Heatmap signal, KDM7A",KDM7A; [1],0.2948
same,"Array Heatmap signal, BPTF (PB)",BPTF (PB); [1],0.2983
same,"Array Heatmap signal, CHD5 (PPCC)",CHD5 (PPCC); [1],0.4663
same,"Array Heatmap signal, TRIM66 (PB)",TRIM66 (PB); [1],0.509
same,"Array Heatmap signal, KDM5B (1)",KDM5B (1); [1],0.6049
same,"Array Heatmap signal, TAF3",TAF3; [1],0.2149
same,"Array Heatmap signal, ING3",ING3; [1],0.4284
same,"Array Heatmap signal, CHD5 (PCC)",CHD5 (PCC); [1],0.7415
same,"Array Heatmap signal, SP140L",SP140L; [1],0.3146
same,"Array Heatmap signal, PHF13",PHF13; [1],0.5394
same,"Array Heatmap signal, RAG2",RAG2; [1],0.2141
same,"Array Heatmap signal, PHF2",PHF2; [1],0.5078
same,"Array Heatmap signal, KDM5A (3)",KDM5A (3); [1],0.3827
same,"Array Heatmap signal, PHRF1 (RP)",PHRF1 (RP); [1],0.3802
H3.3K27bhb (15-34): H3.3 15-34,Array Heatmap value (peptide array signal),CHD4 (PPCC),0.5447
same,Array Heatmap value (peptide array signal),DIDO1,0.6388
same,Array Heatmap value (peptide array signal),MORC3 (CW),0.3496
same,Array Heatmap value (peptide array signal),KDM4C (TTP),0.4386
same,Array Heatmap value (peptide array signal),PHF23,0.5306
same,Array Heatmap value (peptide array signal),DPF2 (PPC2W2),0.6281
same,Array Heatmap value (peptide array signal),KDM5A (1),0.4361
same,Array Heatmap value (peptide array signal),ING4,0.4357
same,Array Heatmap value (peptide array signal),PHF21A,0.4386
same,Array Heatmap value (peptide array signal),ING1,0.5173
same,Array Heatmap value (peptide array signal),ING2,0.6144
same,Array Heatmap value (peptide array signal),AIRE (PP),0.4047
same,Array Heatmap value (peptide array signal),BAZ2B,0.4313
same,Array Heatmap value (peptide array signal),KDM5B (3),0.4143
same,Array Heatmap value (peptide array signal),PHF8,0.363
same,Array Heatmap value (peptide array signal),ING5,0.34
same,Array Heatmap value (peptide array signal),MLL5,0.5648
same,Array Heatmap value (peptide array signal),KDM7A,0.312
same,Array Heatmap value (peptide array signal),BPTF (PB),0.3432
same,Array Heatmap value (peptide array signal),CHD5 (PPCC),0.5245
same,Array Heatmap value (peptide array signal),TRIM66 (PB),0.6188
same,Array Heatmap value (peptide array signal),KDM5B (1),0.6279
same,Array Heatmap value (peptide array signal),TAF3,0.2621
same,Array Heatmap value (peptide array signal),ING3,0.4499
same,Array Heatmap value (peptide array signal),CHD5 (PCC),0.7166
same,Array Heatmap value (peptide array signal),SP140L,0.3378
same,Array Heatmap value (peptide array signal),PHF13,0.6011
same,Array Heatmap value (peptide array signal),RAG2,0.2325
same,Array Heatmap value (peptide array signal),PHF2,0.5233
same,Array Heatmap value (peptide array signal),KDM5A (3),0.404
same,Array Heatmap value (peptide array signal),PHRF1 (RP),0.4098
H3.3K27hxo (15-34): H3.3 15-34,Array Heatmap value (peptide array signal),CHD4 (PPCC),0.4698
same,Array Heatmap value (peptide array signal),DIDO1,0.6054
same,Array Heatmap value (peptide array signal),MORC3 (CW),0.2947
same,Array Heatmap value (peptide array signal),KDM4C (TTP),0.3245
same,Array Heatmap value (peptide array signal),PHF23,0.4877
same,Array Heatmap value (peptide array signal),DPF2 (PPC2W2),0.5523
same,Array Heatmap value (peptide array signal),KDM5A (1),0.3701
same,Array Heatmap value (peptide array signal),ING4,0.3406
same,Array Heatmap value (peptide array signal),PHF21A,0.3552
same,Array Heatmap value (peptide array signal),ING1,0.4956
same,Array Heatmap value (peptide array signal),ING2,0.5803
same,Array Heatmap value (peptide array signal),AIRE (PP),0.3038
same,Array Heatmap value (peptide array signal),BAZ2B,0.3359
same,Array Heatmap value (peptide array signal),KDM5B (3),0.3693
same,Array Heatmap value (peptide array signal),PHF8,0.2775
same,Array Heatmap value (peptide array signal),ING5,0.2604
same,Array Heatmap value (peptide array signal),MLL5,0.4892
same,Array Heatmap value (peptide array signal),KDM7A,0.2316
same,Array Heatmap value (peptide array signal),BPTF (PB),0.2696
same,Array Heatmap value (peptide array signal),CHD5 (PPCC),0.3985
same,Array Heatmap value (peptide array signal),TRIM66 (PB),0.4904
same,Array Heatmap value (peptide array signal),KDM5B (1),0.5964
same,Array Heatmap value (peptide array signal),TAF3,0.2046
same,Array Heatmap value (peptide array signal),ING3,0.3628
same,Array Heatmap value (peptide array signal),CHD5 (PCC),0.595
same,Array Heatmap value (peptide array signal),SP140L,0.2976
same,Array Heatmap value (peptide array signal),PHF13,0.4541
same,Array Heatmap value (peptide array signal),RAG2,0.1931
same,Array Heatmap value (peptide array signal),PHF2,0.4925
same,Array Heatmap value (peptide array signal),KDM5A (3),0.3948
same,Array Heatmap value (peptide array signal),PHRF1 (RP),0.3528
